1 molecule from US4753928A, “Process for obtaining sexual products from mammals suitable for natural or artificial fertilization” (INNOFINANCE Altalanos Innovacios Pengintezet, priority 1985, dated 1988) can be followed below.

The test system of data set [1] is ovary of infant domestic cat. Briefly: Stimulating function of ovary in infant domestic cat (D-Phe6,Gln8-GnRH). The class given is in vivo, Felis cattus domesticus. As to conditions: 100 μg i.m. every second day, 4 times; 45 days old kittens. The method, then: 5 kittens each weighing 0.3 kg and being 45 days old were treated with D-Phe^6, Gln^8 -GnRH analogue every second day, altogether 4 times, using 100 μg each of the active ingredient. It was intramuscularly administered after dilution in normal saline solution. Following treatment, ovaries of both sides were removed from the animals under narcosis and visual examination took place. Thereafter the ovaries were fixed in formalin, and then hystological test was carried out. […] Under incrustation developing follicles were found, well definable from the bright, butter-coloured ovary. Some of the follicles were of Graf-follicle size.

The test system of the next data set is barren chinchillas. Briefly: Treatment of chinchilla barren for prolonged time. In kind it is in vivo. The method, then: Twenty chinchillas barren for at least two years were treated twice daily for three days with 10 μg each of D-Phe^6, Gln^8 -GnRH analogue through intraperitoneal injection. On the 4th day the animals were injected with 75 μg of GnRH analogue, then they were put together with the male. 12 of the Chinchillas gave birth within 4 months. Parallel with the above treatment, 3 animals barren for more than 2 years having very valuable fur as "black" mutant chinchillas were treated twice daily for three days with 10 μg each of D-Phe^6, Gln^8 -GnRH analogue, administered through peritoneal injection. The animals were injected on the 4th day with 75 μg of GnRH analogue, then, as customary, were put together with the male.

The subject of the next data set is female blue fox. Briefly: Treatment of female blue fox in seasonal unoestrus for inducing fertile oestrus. The class given is in vivo. The method, then:
Female blue fox in seasonal unoestrus was examined in December under narcosis with the aid of laparoscopy. […] Then the animal had twice daily intramuscular treatment for ten days with a 1 to 5 μg dose of D-Phe^6, Gln^8 -GnRH analogue. On the tenth day another laparoscopy was carried out under narcosis. […] Also in December a rejected female due to mammalian atrophy was similarly treated twice a day with 2 μg each of D-Phe^6, Gln^8 -GnRH analogue the effect of which was followed by looking at changes in condition of the neck of uterus. On the 6th day following first treatment, the neck of uterus opened. At this time the treatment was carried out with 50 μg of active ingredient. 16 hours later conditions of the ovaries were examined with mirroring and a state immediately prior to ovulation was found. Then abdominal cavity was entirely opened, the ovaries were removed and by puncturing ova were removed from a total of 11 Graf-follicles. Six regular, normal ova covered with corona radiata were found.

Data set [2] deals with primordial follicles of infant domestic female cat. Nature of the data set: Stimulating primordial follicles in infant domestic female cat. In kind it is in vivo, Felis cattus domesticus. The note with it: 0.1 μg i.m. three times daily for three days. The method, then: 5 kittens of 0.3 kg weight and being 45 days old were treated with D-Phe^6, Gln^8 -GnRH analogue in such a way that under narcosis the left-side ovary was removed. Thereafter the medium was treated for three days, three times daily, with a 4-hour time interval between treatments. Treatment was carried out nine times in all and every instance a 0.1 μg dose of the analogue was used. The active ingredient was suspended in normal saline solution and propyleneglycol and it was administered intramuscularly. After treatment remaining ovaries were removed, evaluated visually, then after fixing hystological examination was performed. Visually both ovaries were butter-yellow, looked homogeneous, but the treated ovary was slightly enlarged.

The subject of a further data set is female lion. The class given is in vivo. The method, then: In our process an intact, fertile female lion belonging to a Zoo was treated, a lioness of 200 kg body weight, which has given litter five times in its life already. Treatments took place twice in every 3 weeks, using D-[…], […] -GnRH analogue. Treatment was timed in such a way that a 50 μg dose was follwed by a 500 μg dose, than a 3-week pause followed. Treatment was carried out with the already mentioned three weeks interval from commencement of oestrus (month of April) until 50 days following end of oestrus typical of the species (August).

Each structure is given as a SMILES string. Where a SMILES comes first, the peptide text is derived from it. [ ]: non-standard residue; d: D form. pGlu = O=C1CC[C@@H](C(=O)O)N1

On to `CC(C)C[C@H](NC(=O)[C@@H](Cc1ccccc1)NC(=O)[C@H](Cc1ccc(O)cc1)NC(=O)[C@H](CO)NC(=O)[C@H](Cc1c[nH]c2ccccc12)NC(=O)[C@H](Cc1c[nH]cn1)NC(=O)[C@@H]1CCC(=O)N1)C(=O)N[C@@H](CCC(N)=O)C(=O)N1CCC[C@H]1C(=O)NCC(N)=O` [D-Phe^6, Gln^8 -GnRH analogue, D-Phe^6, Gln^8 -GnRH] ([pGlu]HWSY[dF]LQPG-NH2), for which, in data set [1], the “corpora haemorrhagica on ovaries of both sides” value was 5-7. The “black mutant chinchillas that gave birth within four months” value with barren chinchillas (3 animals barren >2 years, same treatment) is “all three animals gave birth to young ones”. Moreover, the “chinchillas that gave birth within 4 months” value in the data set with barren chinchillas (of twenty barren ≥2 years, 10 μg twice daily 3 days i.p., 75 μg on 4th day) came to 12. For the same molecule, in the data set on female blue fox (second female), the “regular, normal ova covered with corona radiata found” value was “Six”. Further, in the data set with female blue fox (second female, 2 μg twice a day), the “day on which the neck of uterus opened” value is 6 days. In the data set with female blue fox (second female, 16 hours after 50 μg), the Graf-follicles punctured was found to be 11. Besides, the “condition of neck of uterus” value in the data set on female blue fox (tenth day, same animal) is given as “the neck of uterus was open”. In data set [2], the “follicles which started to grow in treated ovary” value is listed as “many hundreds of”. In addition, in the data set on female lion (50 μg followed by 500 μg, every 3 weeks, April to August, regular copulation), the “pregnancy during treatment (contraception)” value is on record as “did not become pregnant”. Further, the “behaviour and appearance during treatment” value with female lion (in vivo) is listed as “showed no irregularity either in its behaviour or in its appearance”.
